The source made the active and inactive calls. The calls are words filed in the database; no cut-off is given here.
Each compound was assayed on Mus musculus (assay: Antifibrotic activity in C57BL/6J mouse model of bleomycin-induced idiopathic pulmonary fibrosis assessed as inhibition of changes in lung textures at 30-60 mg/kg, po dosed for 31 consecutive days followed by tracheal administration of bleomycin by masson's staining based histopathological analysis). Settings: time 31.0 day.
Format: functional, organism-based

Row | SMILES | inhibition
1 | CCc1nc2c(C)cc(-c3ccc(CN4CCC(O)CC4)cc3)cn2c1NC(=O)NCc1ccc(F)cc1 | Active
2 | CCc1nc2c(C)cc(N3CCN(CC(=O)N4CC(O)C4)CC3)cn2c1N(C)c1nc(-c2ccc(F)cc2)c(C#N)s1 | Active

Each compound was assayed on Mus musculus (assay: Antifibrotic activity in C57BL/6 mouse model of bleomycin-induced idiopathic pulmonary fibrosis assessed as inhibition of collagen deposition at 30-60 mg/kg, po dosed for 31 consecutive days followed by tracheal administration of bleomycin by masson's staining based histopathological analysis). Settings: time 31.0 day.
Format: functional, organism-based

Row | SMILES | inhibition
3 | CCc1nc2c(C)cc(-c3ccc(CN4CCC(O)CC4)cc3)cn2c1NC(=O)NCc1ccc(F)cc1 | Active
4 | CCc1nc2c(C)cc(N3CCN(CC(=O)N4CC(O)C4)CC3)cn2c1N(C)c1nc(-c2ccc(F)cc2)c(C#N)s1 | Active

What follows are compounds tested on Mus musculus (assay: Antifibrotic activity in C57BL/6 mouse model of bleomycin-induced idiopathic pulmonary fibrosis assessed as survival rate at 30-60 mg/kg, po dosed for 31 consecutive days followed by tracheal administration of bleomycin relative to control). Settings: C57BL/6, po, 744 h, time 31 day.
Format: functional

Row | SMILES | survival at 60 mg/kg [%]
5 | CCc1nc2c(C)cc(-c3ccc(CN4CCC(O)CC4)cc3)cn2c1NC(=O)NCc1ccc(F)cc1 | 100

Each compound was assayed against Autotaxin (Homo sapiens, UniProt Q13822) (assay: Inhibition of human ATX using FS-3 as substrate preincubated for 45 mins followed by substrate addition and measured every 1 min for 30 mins by fluorescence microplate reader assay). Settings: not given.

Row | IC50 [µM] | SMILES
6 | > 1 | CCc1nc2c(C)cc(-c3ccc(CN4CCSCC4)cc3)cn2c1NC(=O)NCc1ccc(OC)c(Cl)c1
7 | 0.0117 | CCc1nc2c(C)cc(-c3ccc(C(=O)N4CCC(O)CC4)cc3)cn2c1NC(=O)NCc1ccc(OC)c(Cl)c1
8 | 0.626 | CCc1nc2c(C)cc(-c3ccc(C(=O)N4CCCCC4)cc3)cn2c1NC(=O)NCc1ccc(F)cc1
9 | 0.647 | CCc1nc2c(C)cc(-c3ccc(CN4CCCCC4)cc3)cn2c1NC(=O)NCc1ccc(Cl)cc1
10 | 0.283 | CCc1nc2c(C)cc(-c3ccc(CN4CCOCC4)cc3)cn2c1NC(=O)NCc1ccc(Cl)cc1
11 | 0.451 | CCc1nc2c(C)cc(-c3ccc(CN4CCN(C)CC4)cc3)cn2c1NC(=O)NCc1ccc(F)cc1
12 | 0.497 | CCc1nc2c(C)cc(-c3ccc(CN4CCC[C@H]4CO)cc3)cn2c1NC(=O)NCc1ccc(OC)c(Cl)c1
13 | 0.00741 | CCc1nc2c(C)cc(-c3ccc(CN4CCC(O)CC4)cc3)cn2c1NC(=O)NCc1ccc(OC)c(Cl)c1
14 | 0.00543 | CCc1nc2c(C)cc(-c3ccc(CN4CCN(CCO)CC4)cc3)cn2c1NC(=O)NCc1ccc(OC)c(Cl)c1
15 | 0.213 | CCc1nc2c(C)cc(-c3ccc(C(=O)N4CCN(C)CC4)cc3)cn2c1NC(=O)NCc1ccc(OC)c(Cl)c1
16 | 0.688 | CCc1nc2c(C)cc(-c3ccc(CN4CCN(CC)CC4)cc3)cn2c1NC(=O)NCc1ccc(Cl)cc1
17 | 0.00917 | CCc1nc2c(C)cc(-c3ccc(C(=O)N4CCC(O)CC4)cc3)cn2c1NC(=O)NCc1ccc(F)cc1
18 | 1.07 | CCc1nc2c(C)cc(-c3ccc(CN4CCCC4)cc3)cn2c1NC(=O)NCc1ccc(Cl)cc1
19 | 0.257 | CCc1nc2c(C)cc(-c3ccc(C(=O)N4CCN(C)CC4)cc3)cn2c1NC(=O)NCc1ccc(F)cc1
20 | > 1 | CCc1nc2c(C)cc(-c3ccc(C(=O)N4CCN(CC)CC4)cc3)cn2c1NC(=O)NCc1ccc(F)cc1
21 | 0.237 | CCc1nc2c(C)cc(-c3ccc(CN4CCC(O)CC4)cc3)cn2c1NC(=O)NCc1ccc(Cl)cc1
22 | 0.0717 | CCc1nc2c(C)cc(-c3ccc(CN4CCOCC4)cc3)cn2c1NC(=O)NCc1ccc(OC)c(Cl)c1
23 | 0.011 | COc1ccc(CNC(=O)Nc2c(C)nc3c(C)cc(-c4ccc(CN5CCC(O)CC5)cc4)cn23)cc1Cl
24 | 0.0791 | COc1ccc(CNC(=O)Nc2c(C)nc3c(C)cc(-c4ccc(CN5CCN(CCO)CC5)cc4)cn23)cc1Cl

Row | SMILES | IC50 [µM]
25 | CCc1nc2c(C)cc(-c3ccc(CN4CCC(O)CC4)cc3)cn2c1NC(=O)NCc1ccc(F)cc1 | 0.00172

Source: ChEMBL document CHEMBL4808244, “Design, synthesis and anti-fibrosis evaluation of imidazo[1,2-a]pyridine derivatives as potent ATX inhibitors” (Bioorg Med Chem, 2021)
